Here are results for 20 molecules from US8093275B2, “Oxazolone and pyrrolidinone-substituted pryidine amides as P2X3 and P2X2/3 antagonists” (Roche Palo Alto LLC, priority 2009, dated 2012).

In one assay the target is T1, rat P2X3 receptor (Rattus norvegicus, UniProt P49654).
T1 construct: expressed in transfected cells; host or cells: CHO-K1
T1 sequence (P49654 1-397): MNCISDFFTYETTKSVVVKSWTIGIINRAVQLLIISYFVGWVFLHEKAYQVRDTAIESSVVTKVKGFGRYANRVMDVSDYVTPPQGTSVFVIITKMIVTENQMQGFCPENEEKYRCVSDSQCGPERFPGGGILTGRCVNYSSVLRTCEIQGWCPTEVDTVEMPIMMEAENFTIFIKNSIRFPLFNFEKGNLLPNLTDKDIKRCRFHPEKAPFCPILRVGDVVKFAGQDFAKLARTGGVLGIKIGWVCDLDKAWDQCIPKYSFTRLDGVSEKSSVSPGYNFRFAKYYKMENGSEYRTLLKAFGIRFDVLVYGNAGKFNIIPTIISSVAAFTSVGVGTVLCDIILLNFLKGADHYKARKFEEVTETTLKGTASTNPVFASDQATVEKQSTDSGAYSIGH
Briefly: P2X3 FLIPR (Fluorometric Imaging Plate Reader) assay. In kind it is cell-based. The settings on record: CHO-K1 cells transfected with rat P2X3; agonist α,β-meATP 1 μM; FLIPR calcium fluorescence; read-out: pKi P2X3 (converted). The method, then: (§1) CHO-K1 cells were transfected with cloned rat P2X3 or human P2X2/3 receptor subunits and passaged in flasks. 18-24 hours before the FLIPR experiment, cells were released from their flasks, centrifuged, and resuspended in nutrient medium at 2.5×10^5 cells/ml. The cells were aliquoted into black-walled 96-well plates at a density of 50,000 cells/well and incubated overnight in 5% CO2 at 37° C. On the day of the experiment, cells were washed in FLIPR buffer (calcium- and magnesium-free Hank's balanced salt solution, 10 mM HEPES, 2 mM CaCl2, 2.5 mM probenecid; FB). Each well received 100 μl FB and 100 μl of the fluorescent dye Fluo-3 AM [2 μM final conc.]. After a 1 hour dye loading incubation at 37° C., the cells were washed 4 times with FB, and a final 75 μl/well FB was left in each well.
(§2) Test compounds (dissolved in DMSO at 10 mM and serially diluted with FB) or vehicle were added to each well (25 μl of a 4× solution) and allowed to equilibrate for 20 minutes at room temperature. The plates were then placed in the FLIPR and a baseline fluorescence measurement (excitation at 488 nm and emission at 510-570 nm) was obtained for 10 seconds before a 100 μl/well agonist or vehicle addition. The agonist was a 2× solution of α,β-meATP producing a final concentration of 1 μM (P2X3) or 5 μM (P2X2/3). Fluorescence was measured for an additional 2 minutes at 1 second intervals after agonist addition. A final addition of ionomycin (5 μM, final concentration) was made to each well of the FLIPR test plate to establish cell viability and maximum fluorescence of dye-bound cytosolic calcium. Peak fluorescence in response to the addition of α,β-meATP (in the absence and presence of test compounds) was measured and inhibition curves generated using nonlinear regression. PPADS, a standard P2X antagonist, was used as a positive control.

The target in another assay is T2, human P2X2/3 receptor (Homo sapiens, UniProt P56373+Q9UBL9).
T2 construct: expressed in transfected cells; host or cells: CHO-K1
T2 sequence (Q9UBL9 1-471): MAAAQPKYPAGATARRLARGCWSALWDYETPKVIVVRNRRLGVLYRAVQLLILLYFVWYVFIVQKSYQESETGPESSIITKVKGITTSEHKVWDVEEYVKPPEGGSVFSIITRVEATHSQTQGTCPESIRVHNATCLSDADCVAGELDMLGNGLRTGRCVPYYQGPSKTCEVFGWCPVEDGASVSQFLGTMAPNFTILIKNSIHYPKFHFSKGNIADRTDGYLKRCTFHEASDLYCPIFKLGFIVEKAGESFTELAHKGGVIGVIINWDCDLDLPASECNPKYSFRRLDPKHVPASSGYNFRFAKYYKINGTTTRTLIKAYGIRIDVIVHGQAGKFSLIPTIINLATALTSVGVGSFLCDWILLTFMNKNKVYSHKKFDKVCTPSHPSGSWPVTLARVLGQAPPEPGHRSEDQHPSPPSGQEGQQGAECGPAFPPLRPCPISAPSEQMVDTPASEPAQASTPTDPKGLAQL
T2 sequence (P56373 1-397): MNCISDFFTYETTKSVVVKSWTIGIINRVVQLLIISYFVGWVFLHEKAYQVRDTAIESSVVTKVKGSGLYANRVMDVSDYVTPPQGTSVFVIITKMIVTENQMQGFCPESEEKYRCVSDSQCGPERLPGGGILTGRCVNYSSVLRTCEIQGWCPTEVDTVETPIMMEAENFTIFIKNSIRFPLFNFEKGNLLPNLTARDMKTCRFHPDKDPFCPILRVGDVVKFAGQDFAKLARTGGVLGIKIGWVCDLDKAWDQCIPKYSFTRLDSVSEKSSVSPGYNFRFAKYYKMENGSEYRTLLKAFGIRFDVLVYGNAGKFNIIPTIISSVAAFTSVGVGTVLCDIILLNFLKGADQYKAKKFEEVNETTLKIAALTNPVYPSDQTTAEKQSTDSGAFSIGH
Briefly: P2X2/3 FLIPR (Fluorometric Imaging Plate Reader) assay. In kind it is cell-based. The settings on record: CHO-K1 cells transfected with human P2X2/3; agonist α,β-meATP 5 μM; FLIPR calcium fluorescence; read-out: pKi P2X2/3 (converted). On the procedure: as §1, §2

On to `Cc1ccc(-c2cc(C(=O)NC(C)c3cnccn3)cc(N3C(=O)OC[C@H]3C(C)C)c2)cc1` (stereo partly drawn) [Compound 39, 5-((R)-4-Isopropyl-2-oxo-oxazolidin-3-yl)-4′-methyl-biphenyl-3-carboxylic acid (1-pyrazin-2-yl-ethyl)-amide], for which the Ki on rat P2X3 receptor was 0.00933 µM; on human P2X2/3 receptor it was 0.038 µM.

Take `Cc1ccc(-c2cc(C(=O)N[C@@H](C)CO)cc(N3C(=O)OC[C@H]3C(C)C)c2)cc1` [Compound 38, 5-((R)-4-Isopropyl-2-oxo-oxazolidin-3-yl)-4′-methyl-biphenyl-3-carboxylic acid ((S)-2-hydroxy-1-methyl-ethyl)-amide]: the Ki is 0.00219 µM at rat P2X3 receptor and 0.0794 µM at human P2X2/3 receptor.

Turning to `Cc1ccc(-c2cc(C(=O)NCc3cnc(C)cn3)cc(N3C(=O)OC[C@H]3C(C)C)c2)nc1` [Compound 11, 3-((R)-4-Isopropyl-2-oxo-oxazolidin-3-yl)-N-(5-methyl-pyrazin-2-ylmethyl)-5-(5-methyl-pyridin-2-yl)-benzamide], the Ki on rat P2X3 receptor is 0.00398 µM; at human P2X2/3 receptor, 0.0204 µM.

`CCC1COC(=O)N1c1cc(C(=O)N[C@@H](C)CO)cc(-c2ccc(C)cn2)c1` (stereo partly drawn) [Compound 17, 3-(4-Ethyl-2-oxo-oxazolidin-3-yl)-N-((S)-2-hydroxy-1-methyl-ethyl)-5-(5-methyl-pyridin-2-yl)-benzamide]: the Ki at rat P2X3 receptor was 0.0105 µM; at human P2X2/3 receptor, 4.9 µM.

`Cc1ccc(-c2cc(C(=O)NC(C)c3cnccn3)cc(N3C(=O)OC[C@H]3C(C)C)c2)c(F)c1` (stereo partly drawn) [Compound 47, 2′-Fluoro-5-((R)-4-isopropyl-2-oxo-oxazolidin-3-yl)-4′-methyl-biphenyl-3-carboxylic acid (1-pyrazin-2-yl-ethyl)-amide]: the values for the Ki on rat P2X3 receptor and at human P2X2/3 receptor were 0.0126 µM and 0.0447 µM, respectively.

Regarding `Cc1ccc(-c2cc(C(=O)NCc3ccc(C)nn3)cc(N3C(=O)OCC3(C)C)c2)nc1` [Compound 31, 3-(4,4-Dimethyl-2-oxo-oxazolidin-3-yl)-N-(6-methyl-pyridazin-3-ylmethyl)-5-(5-methyl-pyridin-2-yl)-benzamide], the Ki was 0.00562 µM at rat P2X3 receptor and 0.0851 µM on human P2X2/3 receptor.

For `Cc1ccc(-c2cc(C(=O)NC(C)c3cnccn3)cc(N3C(=O)OC[C@@H]3C(C)C)c2)cc1` (stereo partly drawn) [Compound 45, 5-((S)-4-Isopropyl-2-oxo-oxazolidin-3-yl)-4′-methyl-biphenyl-3-carboxylic acid (1-pyrazin-2-yl-ethyl)-amide], the Ki on rat P2X3 receptor is 0.263 µM; on human P2X2/3 receptor it was 7.59 µM.

In the case of `Cc1ccc(-c2cc(C(=O)NC3CC3)cc(N3C(=O)OC[C@H]3C(C)C)c2)cc1` [Compound 41, 5-((R)-4-Isopropyl-2-oxo-oxazolidin-3-yl)-4′-methyl-biphenyl-3-carboxylic acid cyclopropylamide], the Ki was 0.00398 µM on rat P2X3 receptor and 0.0832 µM on human P2X2/3 receptor.

Turning to `Cc1ccc(-c2cc(C(=O)NCc3ncc(C)cn3)cc(-n3c(=O)oc4ccccc43)c2)nc1` [Compound 32, 3-(5-Methyl-pyridin-2-yl)-N-(5-methyl-pyrimidin-2-ylmethyl)-5-(2-oxo-benzooxazol-3-yl)-benzamide], the Ki at rat P2X3 receptor was 0.00457 µM; at human P2X2/3 receptor, 0.0245 µM.

Take `CCC1COC(=O)N1c1cc(C(=O)NCc2cnc(C)cn2)cc(-c2ccc(C)cn2)c1` (stereo not shown) [Compound 19, 3-(4-Ethyl-2-oxo-oxazolidin-3-yl)-N-(5-methyl-pyrazin-2-ylmethyl)-5-(5-methyl-pyridin-2-yl)-benzamide]: the results for the Ki at rat P2X3 receptor and at human P2X2/3 receptor were 0.00427 µM and 0.0661 µM, respectively.

`Cc1ccc(-c2cc(C(=O)NC(C)c3cnccn3)cc(N3C(=O)OC[C@H]3C(C)C)c2)nc1` (stereo partly drawn) [Compound 10, 3-((R)-4-Isopropyl-2-oxo-oxazolidin-3-yl)-5-(5-methyl-pyridin-2-yl)-N-(1-pyrazin-2-yl-ethyl)-benzamide]: the Ki on rat P2X3 receptor is 0.00355 µM; at human P2X2/3 receptor, 0.0263 µM.

Consider `Cc1ccc(-c2cc(C(=O)NC3CC3)cc(N3C(=O)OC[C@H]3C(C)C)c2)c(F)c1` [Compound 49, 2′-Fluoro-5-((R)-4-isopropyl-2-oxo-oxazolidin-3-yl)-4′-methyl-biphenyl-3-carboxylic acid cyclopropylamide], for which the Ki was 0.00891 µM at rat P2X3 receptor and 0.123 µM at human P2X2/3 receptor.

Consider `Cc1ccc(-c2cc(C(=O)NCc3cncnc3)cc(-n3c(=O)oc4ccccc43)c2)nc1` [Compound 12, 3-(5-Methyl-pyridin-2-yl)-5-(2-oxo-benzooxazol-3-yl)-N-pyrimidin-5-ylmethyl-benzamide], for which the Ki on rat P2X3 receptor was 0.00603 µM; on human P2X2/3 receptor it was 0.141 µM.

For the molecule `CCC1COC(=O)N1c1cc(C(=O)NC(C)c2cnccn2)cc(-c2ccc(C)cn2)c1` (stereo not shown) [Compound 18, 3-(4-Ethyl-2-oxo-oxazolidin-3-yl)-5-(5-methyl-pyridin-2-yl)-N-(1-pyrazin-2-yl-ethyl)-benzamide], the figures for the Ki on rat P2X3 receptor and on human P2X2/3 receptor were 0.00759 µM and 0.339 µM, respectively.

Take `Cc1ccc(-c2cc(C(=O)NCc3cccnn3)cc(-n3c(=O)oc4ccccc43)c2)nc1` [Compound 14, 3-(5-Methyl-pyridin-2-yl)-5-(2-oxo-benzooxazol-3-yl)-N-pyridazin-3-ylmethyl-benzamide]: the Ki is 0.00851 µM at rat P2X3 receptor and 0.263 µM on human P2X2/3 receptor.

Consider `Cc1ccc(-c2cc(C(=O)NCc3cnc(C)cn3)cc(-n3c(=O)oc4ccccc43)c2)cc1` [Compound 51, 4′-Methyl-5-(2-oxo-benzooxazol-3-yl)-biphenyl-3-carboxylic acid (5-methyl-pyrazin-2-ylmethyl)-amide], for which the values for the Ki on rat P2X3 receptor and on human P2X2/3 receptor were 0.011 µM and 0.0316 µM, respectively.

Regarding `Cc1ccc(-c2cc(C(=O)NC(C)c3cnccn3)cc(N3C(=O)Cc4ccccc43)c2)cc1` (stereo not shown) [Compound 54, 4′-Methyl-5-(2-oxo-2,3-dihydro-indol-1-yl)-biphenyl-3-carboxylic acid (1-pyrazin-2-yl-ethyl)-amide], the Ki on rat P2X3 receptor is 0.02 µM; on human P2X2/3 receptor, 0.112 µM.

Regarding `Cc1ccc(-c2cc(C(=O)N[C@@H](C)CO)cc(-n3c(=O)oc4ccccc43)c2)nc1` [Compound 3, N-((S)-2-Hydroxy-l-methyl-ethyl)-3-(5-methyl-pyridin-2-yl)-5-(2-oxo-benzooxazol-3-yl)-benzamide], the Ki at rat P2X3 receptor was 0.00331 µM; on human P2X2/3 receptor, 0.234 µM.

`Cc1ccc(-c2cc(C(=O)NC(C)c3cnccn3)cc(-n3c(=O)[nH]c4ccccc43)c2)nc1` (stereo not shown) [Compound 4, 3-(5-Methyl-pyridin-2-yl)-5-(2-oxo-2,3-dihydro-benzoimidazol-1-yl)-N-(1-pyrazin-2-yl-ethyl)-benzamide]: the Ki was 0.00407 µM at rat P2X3 receptor and 0.191 µM at human P2X2/3 receptor.

As for `Cc1ccc(-c2cc(C(=O)NCc3cnc(C)cn3)cc(N3C(=O)CCC3C)c2)nc1` (stereo not shown) [Compound 28, 3-(2-Methyl-5-oxo-pyrrolidin-1-yl)-N-(5-methyl-pyrazin-2-ylmethyl)-5-(5-methyl-pyridin-2-yl)-benzamide], the Ki on rat P2X3 receptor is 0.0302 µM; on human P2X2/3 receptor it was 2.04 µM.
